# Data taken from US8173638B2 (Boehringer Ingelheim International GmbH, priority 2006, dated 2012).
# Read-outs that look alike come from different tables or passages of the source.
# Biological target: T1, human CB2R (Homo sapiens, UniProt P34972)
# T1 construct: host or cells: CHO cells
# Experiment: CB2R mediated modulation of cAMP synthesis
# Assay type: cell-based
# Conditions: for agonistic activity: found through the use of the described assays (CB2 agonists), qualitative statement; for Emax: 0.5 h, read-out: Agonist Efficacy (%)
# Outline: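 CHO cells expressing human CB2R treated with compound 30 min at 37 °C in buffer with 1 mM IBMX, 0.25% BSA and 10 uM forskolin. cAMP measured after lysis by DiscoverX-XS kit.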
# [1] = CHO cells expressing human CB2R, cAMP inhibited by 1 uM CP55940 defined as 100%
# T1 sequence (P34972 whole entry): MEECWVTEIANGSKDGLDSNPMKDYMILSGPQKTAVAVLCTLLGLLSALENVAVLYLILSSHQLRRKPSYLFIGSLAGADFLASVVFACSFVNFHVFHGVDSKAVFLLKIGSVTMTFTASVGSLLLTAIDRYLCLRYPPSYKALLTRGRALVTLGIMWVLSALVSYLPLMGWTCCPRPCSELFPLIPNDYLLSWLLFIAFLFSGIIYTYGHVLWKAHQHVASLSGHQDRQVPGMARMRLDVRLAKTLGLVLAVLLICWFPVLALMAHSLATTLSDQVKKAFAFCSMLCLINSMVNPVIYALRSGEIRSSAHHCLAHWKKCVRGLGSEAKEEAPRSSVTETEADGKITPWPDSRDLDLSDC
agonistic activity,SMILES,other results
agonistic activity,"CC(C)(C)c1cc(NC(=O)N2CCCN(C(=O)C3CCCCCC3)CC2)no1 [4-Cycloheptanecarbonyl-[1,4]diazepane-1-carboxylic acid (5-tert-butyl-isoxazol-3-yl)-amide]",
agonistic activity,"O=C(CC1CCCC1)N1CCCN(C(=O)Nc2cc(Cl)ccc2Cl)CC1 [4-(2-Cyclopentyl-acetyl)-[1,4]diazepane-1-carboxylic acid (2,5-dichloro-phenyl)-amide]",
agonistic activity,"O=C(Nc1ccc2ccccc2c1)N1CCCN(C(=O)c2cc(Cl)ccc2Cl)CC1 [4-(2,5-Dichloro-benzoyl)-[1,4]diazepane-1-carboxylic acid naphthalen-2-ylamide]",
,"CC(C)(C)c1ccc(NC(=O)N2CCCN(C(=O)CC3CCCCC3)CC2)cc1 [Compound 107, 4-(2-Cyclohexyl-acetyl)-[1,4]diazepane-1-carboxylic acid (4-tert-butyl-phenyl)-amide]",Emax [1]: 94%; EC50 (read-out: hCB2 cAMP EC50): 100 nM
agonistic activity,"CCC(C)c1ccc(NC(=O)N2CCCN(C(=O)CC3CCOCC3)CC2)cc1 (stereo not shown) [4-(2-Tetrahydro-pyran-4-yl-acetyl)-[1,4]diazepane-1-carboxylic acid (4-sec-butyl-phenyl)-amide]",
,"CC(C)(C)c1cc(NC(=O)N2CCCN(C(=O)C3CCCCC3)CC2)no1 [Compound 153, 4-Cyclohexanecarbonyl-[1,4]diazepane-1-carboxylic acid (5-tert-butyl-isoxazol-3-yl)-amide]",Emax [1]: 104%; EC50 (read-out: hCB2 cAMP EC50): 3.7 nM
agonistic activity,"Cc1ccc(C(=O)N2CCCN(C(=O)Nc3ccc(C(C)(C)C)cc3)CC2)cc1 [4-(4-Methyl-benzoyl)-[1,4]diazepane-1-carboxylic acid (4-tert-butyl-phenyl)-amide]",
agonistic activity,"CC(C)(C)c1cc(NC(=O)N2CCCN(C(=O)C3CCCNC3)CC2)no1 (stereo not shown) [4-(Piperidine-3-carbonyl)-[1,4]diazepane-1-carboxylic acid (5-tert-butyl-isoxazol-3-yl)-amide]",
agonistic activity,"Cn1c(NC(=O)N2CCCN(C(=O)C3CCOCC3)CC2)nc2ccccc21 [4-(Tetrahydro-pyran-4-carbonyl)-[1,4]diazepane-1-carboxylic acid (1-methyl-1H-benzoimidazol-2-yl)-amide]",
,"O=C(Nc1nc(-c2ccccc2)cs1)N1CCCN(C(=O)C2CCC(O)CC2)CC1 (stereo not shown) [Compound 174, 4-(4-Hydroxy-cyclohexanecarbonyl)-[1,4]diazepane-1-carboxylic acid (4-phenyl-thiazol-2-yl)-amide]",EC50: 43 nM; Emax (CHO): 102%
agonistic activity,"CC(C)c1ccc(NC(=O)N2CCCN(C(=O)C3CCCCC3)CC2)cc1 [4-Cyclohexanecarbonyl-[1,4]diazepane-1-carboxylic acid (4-isopropyl-phenyl)-amide]",
agonistic activity,"CC(C)c1cnc(NC(=O)N2CCCN(C(=O)C3CCOCC3)CC2)s1 [4-(Tetrahydro-pyran-4-carbonyl)-[1,4]diazepane-1-carboxylic acid (5-isopropyl-thiazol-2-yl)-amide]",
,"CC(C)(C)c1cc(NC(=O)N2CCCN(C(=O)CC3CCCC3)CC2)no1 [Compound 140, 4-(2-Cyclopentyl-acetyl)-[1,4]diazepane-1-carboxylic acid (5-tert-butyl-isoxazol-3-yl)-amide]",EC50: 12 nM; Emax (CHO): 103%
agonistic activity,"CC(C)CC(=O)N1CCCN(C(=O)Nc2cc(C(C)(C)C)on2)CC1 [4-(3-Methyl-butyryl)-[1,4]diazepane-1-carboxylic acid (5-tert-butyl-isoxazol-3-yl)-amide]",
,"O=C(Nc1nc(-c2ccccc2)cs1)N1CCCN(C(=O)c2ccc(Cl)cc2)CC1 [Compound 167, 4-(4-Chloro-benzoyl)-[1,4]diazepane-1-carboxylic acid (4-phenyl-thiazol-2-yl)-amide]",Emax [1]: 102%; EC50 (read-out: hCB2 cAMP EC50): 26 nM
agonistic activity,"O=C(Nc1ccc2ccccc2c1)N1CCCN(C(=O)C2CCOCC2)CC1 [4-(Tetrahydro-pyran-4-carbonyl)-[1,4]diazepane-1-carboxylic acid naphthalen-2-ylamide]",

agonistic activity,SMILES,other results
agonistic activity,CCCCc1ccc(NC(=O)N2CCCN(C(=O)CC3CCCC3)CC2)cc1,
,"O=C(Nc1ccc2ccccc2c1)N1CCCN(C(=O)c2cc(Cl)ccc2Cl)CC1 [Compound 90, 4-(2,5-Dichloro-benzoyl)-[1,4]diazepane-1-carboxylic acid naphthalen-2-ylamide]",Emax [1]: 91%; EC50 (read-out: hCB2 cAMP EC50): 20 nM
agonistic activity,"Cc1nc(NC(=O)N2CCCN(C(=O)C3CCOCC3)CC2)sc1C(C)(C)C [4-(Tetrahydro-pyran-4-carbonyl)-[1,4]diazepane-1-carboxylic acid (5-tert-butyl-4-methyl-thiazol-2-yl)-amide]",
agonistic activity,"CC(C)(C)c1ccc(NC(=O)N2CCCN(C(=O)CN3CCCCC3)CC2)cc1 [4-(2-Piperidin-1-yl-acetyl)-[1,4]diazepane-1-carboxylic acid (4-tert-butyl-phenyl)-amide]",
agonistic activity,"O=C(CC1CCOCC1)N1CCCN(C(=O)Nc2ccc3c(c2)OC(F)(F)O3)CC1 [4-(2-Tetrahydro-pyran-4-yl-acetyl)-[1,4]diazepane-1-carboxylic acid (2,2-difluoro-benzo[1,3]dioxol-5-yl)-amide]",
agonistic activity,"CC(=O)N1CCN(C(=O)N2CCCN(C(=O)Nc3cc(C(C)(C)C)on3)CC2)CC1 [4-(4-Acetyl-piperazine-1-carbonyl)-[1,4]diazepane-1-carboxylic acid (5-tert-butyl-isoxazol-3-yl)-amide]",
agonistic activity,"CC(C)c1ccc(NC(=O)N2CCCN(C(=O)c3ccncc3)CC2)cc1 [4-(Pyridine-4-carbonyl)-[1,4]diazepane-1-carboxylic acid (4-isopropyl-phenyl)-amide]",
agonistic activity,"CC(C)CCC(=O)N1CCCN(C(=O)Nc2ccc(C(C)C)cc2)CC1 [4-(4-Methyl-pentanoyl)-[1,4]diazepane-1-carboxylic acid (4-isopropyl-phenyl)-amide]",
agonistic activity,"CC(C)(C)C(=O)N1CCCN(C(=O)Nc2ccc(C(C)(C)C)cc2)CC1 [4-(2,2-Dimethyl-propionyl)-[1,4]diazepane-1-carboxylic acid (4-tert-butyl-phenyl)-amide]",
,"N#Cc1ccc(C(=O)N2CCCN(C(=O)Nc3ccc4ccccc4c3)CC2)cc1 [Compound 88, 4-(4-Cyano-benzoyl)-[1,4]diazepane-1-carboxylic acid naphthalen-2-ylamide]",Emax [1]: 97%; EC50 (read-out: hCB2 cAMP EC50): 36 nM
,"CC(C)(C)c1ccc(NC(=O)N2CCCN(C(=O)c3ccc(C#N)cc3)CC2)cc1 [Compound 112, 4-(4-Cyano-benzoyl)-[1,4]diazepane-1-carboxylic acid (4-tert-butyl-phenyl)-amide]",Emax [1]: 109%; EC50 (read-out: hCB2 cAMP EC50): 19 nM
agonistic activity,"O=C(CC1CCCC1)N1CCCN(C(=O)Nc2ccc(OC(F)(F)F)cc2)CC1 [4-(2-Cyclopentyl-acetyl)-[1,4]diazepane-1-carboxylic acid (4-trifluoromethoxy-phenyl)-amide]",
,"CC(C)(C)c1cnc(NC(=O)N2CCCN(C(=O)N3CCS(=O)(=O)CC3)CC2)s1 [Compound 214, 4-(1,1-Dioxo-1 λ^6-thiomorpholine-4-carbonyl)-[1,4]diazepane-1-carboxylic acid (5-tert-butyl-thiazol-2-yl)-amide]",Emax [1]: 95%; EC50 (read-out: hCB2 cAMP EC50): 20 nM
agonistic activity,"CC(C)c1ccc(NC(=O)N2CCCN(C(=O)CC3CCCC3)CC2)cc1 [4-(2-Cyclopentyl-acetyl)-[1,4]diazepane-1-carboxylic acid (4-isopropyl-phenyl)-amide]",
agonistic activity,"CC(C)(C)c1cc(NC(=O)N2CCCN(C(=O)CN3CCS(=O)(=O)CC3)CC2)on1 [4-[2-(1,1-Dioxo-1λ^6-thiomorpholin-4-yl)-acetyl]-[1,4]diazepane-1-carboxylic acid (3-tert-butyl-isoxazol-5-yl)-amide]",
agonistic activity,"CC(C)c1cnc(NC(=O)N2CCCN(C(=O)N3CCS(=O)(=O)CC3)CC2)s1 [4-(1,1-Dioxo-1λ^6-thiomorpholine-4-carbonyl)-[1,4]diazepane-1-carboxylic acid (5-isopropyl-thiazol-2-yl)-amide]",

SMILES,agonistic activity,other results
"O=C(CC1CCCC1)N1CCCN(C(=O)Nc2ccc(-c3ccccc3)cc2)CC1 [4-(2-Cyclopentyl-acetyl)-[1,4]diazepane-1-carboxylic acid (4-biphenyl)-amide]",agonistic activity,
"CC(C)c1ccc(NC(=O)N2CCCN(C(=O)CC(C)(C)C)CC2)cc1 [4-(3,3-Dimethyl-butyryl)-[1,4]diazepane-1-carboxylic acid (4-isopropyl-phenyl)-amide]",agonistic activity,
"CC(C)(C)c1cc(NC(=O)N2CCCN(C(=O)C3CCOC3)CC2)no1 (stereo not shown) [4-(Tetrahydro-furan-3-carbonyl)-[1,4]diazepane-1-carboxylic acid (5-tert-butyl-isoxazol-3-yl)-amide]",agonistic activity,
"CC(C)(C)c1cc(NC(=O)N2CCCN(C(=O)N3CCN(S(C)(=O)=O)CC3)CC2)no1 [4-(4-Methanesulfonyl-piperazine-1-carbonyl)-[1,4]diazepane-1-carboxylic acid (5-tert-butyl-isoxazol-3-yl)-amide]",agonistic activity,
"CC(C)(C)c1cc(NC(=O)N2CCCN(C(=O)C3CCCO3)CC2)no1 (stereo not shown) [4-(Tetrahydro-furan-2-carbonyl)-[1,4]diazepane-1-carboxylic acid (5-tert-butyl-isoxazol-3-yl)-amide]",agonistic activity,
